# Reference: patent publication US20160083424A1, “COMPOSITIONS AND METHODS FOR TARGETING ANTIGEN-PRESENTING CELLS” (OSLO UNIVERSITETSSYKEHUS HF, priority 2013, published 2016)
# Where no end group is shown, it is not given here. siRNA = not defined here
# Legend:
# Monocytes = test: Competition of NW phage binding by NW peptide and its mutant peptides; set-up: species or system human; conditions: for competition with NW phage binding / peptide binding to monocytes: mutant peptides, four concentrations (0.4, 2, 8, 20 μM)
# Description: (§1) In brief, aliquots of DCs (10^5) were divided into conical 96-well micro-plate, washed with PBS buffer containing 1% FCS, and then incubated with the amplified phages (≈10^9 TU) for 30-60 min on ice. After washing, cells were incubated with biotinylated anti-M13 monoclonal antibody (Abcam) and then with phycoerythrin (PE)-conjugated streptavidin. Competition assays were performed by pre-incubating DCs with different amounts of the peptides for 15 min on ice. Then NW phage (≈10^9 TU) was added and samples incubated for additional 60 min on ice. After washing, bound phages were detected as indicated above. Samples were analyzed by FACSCanto II flow cytometry.
# To uncover the contribution of individual side chains and identify which amino acids are responsible for the NW peptide binding to monocytes and dendritic cells, alanine scanning was performed. Derivatives of the NW peptide were synthesized with exchange of each amino acid by alanine (FIG. 11A). These peptide derivatives were used to compete with the NW phage binding to monocytes. For each peptide, four concentrations were tested. Bound phage particles were detected with the use of biotin conjugated anti-M13 antibody and PE-conjugated streptavidin. The NW peptide (WT) competed effectively with the phage binding to monocytes with an IC50 of approximately 0.5 uM. The replacement of tryptophan (W) at position 2, 6, or 12 by a single alanine abolished the binding. Indeed, no significant competition with the phage binding was seen even at high peptide concentrations (C4=20 uM). Similarly, replacement of leucine (L) at position 4 or 7 by alanine inhibited the peptide binding (FIG. 11B).
# iDCs [1] = test: Peptide binding by flow cytometry; set-up: species or system human
# Description: The cells were seeded onto 24-well plate (3×10^5/well/0.5 ml) in X-vivo 15 medium and incubated overnight at 37° C. Subsequently, they were incubated with 6IAF-conjugated peptides (5 μg/ml) for 30 min at 37° C., gently scraped, washed 3 times and then analyzed by flow cytometry. Binding was also performed at 4° C.
# iDC = test: Competition of NW phage binding by synthetic peptides; set-up: species or system human
# Description: as §1
# To further investigate the importance of the NW peptide on phage binding, competition experiments were performed using synthetic peptides.
# [2] = test system: autologous CD4 or CD8 T cells; test: Autologous stimulation of T lymphocytes by DCs exposed to targeted pp65 peptides, [3H] thymidine incorporation; format: cell-based, human; conditions: semi mDCs loaded at 4° C., HLA-A2+/CMV positive donors, 5 days
# Description: (§2) Peptides at a concentration of 5 μg/ml were incubated with semi mDCs from HLA-A2/CMV-positive donors for 60 min at 4° C. Subsequently, they were washed to remove unbound peptides. Autologous stimulation was done in 96-well tissue culture plates in X-vivo 15 medium. Briefly, DCs were mixed with 10^5 autologous CD4 or CD8 T cells at a DC/lymphocytes ratios of 1/5 and 1/10 in a final volume of 250 μl. Cells were incubated for 5 days and then they were pulsed with [^3H] thymidine and harvested 16 h later. [^3H] thymidine incorporation was measured in a β-scintillation counter. In some experiments, the cells were cultured for 8 days and then stained with dextramers specific for pp65 NLVPMVATV (SEQ ID NO:19) epitope.
# The capacity of the NW-pp65 fusion peptide (60-mer) to activate T cells from HLA-A2+/CMV positive donors was evaluated. It should be noted that the 48-mer pp65 peptide contains both MHC class I (e.g. NLVPMVATV) (SEQ ID NO:19) and class II (e.g. AGILARNLVPMVATV (SEQ ID NO:23), FFWDANDIYRI (SEQ ID NO:24)) epitopes, allowing the detection of CD4 and CD8 T-cell responses (24-26). […] All cultures were incubated at 37° C. for 5 days and T-cell activation was determined by measuring their proliferation potential (FIG. 6A). […]
# [3] = test system: PBMC cultures from CMV-positive donors; test: IFN-γ production in PBMC cultures; format: cell-based, human; conditions: PBMCs from HLA-A2+/CMV positive
# Description: (A) PBMCs from HLA-A2+/CMV-positive donors were incubated with the indicated fusion peptides for 60 min at 4° C., washed and then incubated at 37° C. for […]. T-cell proliferation was monitored by thymidine incorporation. (B) Dextramer staining of CD8 T cells against NLVPMVATV (SEQ ID NO:19) epitope. (C) As in A and B, but monocyte-depleted PBMCs were used. (D) INF-γ and IL-10 levels in PBMC culture supernatants determined by ELISA.
# Next, the immunostimulatory potential of the NW-pp65 fusion peptide was evaluated by assessing its ability to stimulate the overall IFN-γ and IL-10 production in PBMC cultures from CMV-positive donors (FIG. 8D).
# PBMCs = test: Autologous stimulation of PBMCs with pp65 targeted peptides, [3H] thymidine incorporation; format: cell-based, human; conditions: whole PBMCs, peptides at 4° C., 5 days at 37° C.
# Description: (§3) PBMC from HLA-A2/CMV+ donors were thawed, washed and then incubated with the peptides (5 μg/ml) for 60 min at 4° C. Subsequently, the cells were washed twice and then plated at 2×10^5 cells per well in 96-well tissue culture plate. Cells were cultured for 5 days and subsequently they were pulsed with [^3H] thymidine and harvested 16 h later. In some experiments, the cells were cultured for 12 days and then stained with dextramers specific for pp65 NLVPMVATV (SEQ ID NO:19) epitope. Monocyte-depleted PBMCs were also used. To analyze primary immune responses against pp65 protein, PBMCs from HLA-A2+/CMV-negative donors were used. Autologous DCs were incubated with either NW-pp65 or GA-pp65 peptide (5 μg/ml) at 4° C. for 1 h, followed by three washes to remove unbound peptides. Subsequently, the cells were incubated with CD45RO-depleted PBMC (responder cells) and co-cultured for 10 days at ratio 1/10 (DC to responder cells) in X-vivo 15 medium supplemented with 10 ng/ml human IL-7 for 10 days. After 2 rounds of stimulation (8 days each) with autologous DC loaded with peptides, the cells were stained with dextramers specific for pp65 NLVPMVATV (SEQ ID NO:19) epitope. To test spontaneous uptake of peptides by DCs, PBMCs from HLA-A2+/CMV positive donors were incubated at 37° C. with various concentrations of untargeted or targeted pp65 peptide for 90 min. […]
# [4] = test system: CD8 T cells specific for the NLVPMVATV epitope; test: Dextramer staining of CD8 T cells after stimulation with peptide-exposed DCs; format: cell-based, human; conditions: DC-stimulated CD8 T cells, CMV positive donors, equal molar concentrations, n=3
# Description: as §2
# Dextramers with CMV (NLVPMVATV) (SEQ ID NO:19) and HIV (ILKEPVHGV) (SEQ ID NO:22) HLA-A2 specific antigens were obtained from Immudex (Copenhagen, Denmark). Antibodies against human CD8, CD19 and CD56 were obtained from eBioscience (San Diego, Calif., USA). […] Cells were washed and resuspended in SB containing 1% paraformaldehyd and analyzed on a BD SLR II flow cytometer. The data were analyzed using FCS Express (De Novo Software, Los Angeles, Calif., USA).
# [5] = test system: pp65-specific naïve T cells; test: Induction of CMV-pp65-specific T cells from naive donor repertoire, dextramer staining; format: cell-based, human; conditions: CD45RO-depleted PBMCs, HLA-A2+/CMV negative donors, IL-7, representative example
# Description: as §3, with “days.” for “days. After 2 rounds of stimulation (8 days each) with autologous DC loaded with peptides, the cells were stained with dextramers specific for pp65 NLVPMVATV (SEQ ID NO:19) epitope. To test spontaneous uptake of peptides by DCs, PBMCs from HLA-A2+/CMV positive donors were incubated at 37° C. with various concentrations of untargeted or targeted pp65 peptide for 90 min.”
# Dextramers with CMV (NLVPMVATV) (SEQ ID NO:19) and HIV (ILKEPVHGV) (SEQ ID NO:22) HLA-A2 specific antigens were obtained from Immudex (Copenhagen, Denmark). […] Cells were washed and resuspended in SB containing 1% paraformaldehyd and analyzed on a BD SLR II flow cytometer. The data were analyzed using FCS Express (De Novo Software, Los Angeles, Calif., USA). […]
# [6] = test system: CD8 T cells against NLVPMVATV epitope; test: Dextramer staining of CD8 T cells after PBMC stimulation with pp65 peptides; format: cell-based, human
# Description: PBMC from HLA-A2/CMV+ donors were thawed, washed and then incubated with the peptides (5 μg/ml) for 60 min at 4° C. Subsequently, the cells were washed twice and then plated at 2×10^5 cells per well in 96-well tissue culture plate. Cells were cultured for 5 days and subsequently they were pulsed with [^3H] thymidine and harvested 16 h later. In some experiments, the cells were cultured for 12 days and then stained with dextramers specific for pp65 NLVPMVATV (SEQ ID NO:19) epitope. Monocyte-depleted PBMCs were also used. To analyze primary immune responses against pp65 protein, PBMCs from HLA-A2+/CMV-negative donors were used. Autologous DCs were incubated with either NW-pp65 or GA-pp65 peptide (5 μg/ml) at 4° C. for 1 h, followed by three washes to remove unbound peptides. Subsequently, the cells were incubated with CD45RO-depleted PBMC (responder cells) and co-cultured for 10 days at ratio 1/10 (DC to responder cells) in X-vivo 15 medium supplemented with 10 ng/ml human IL-7 for 10 days. After 2 rounds of stimulation (8 days each) with autologous DC loaded with peptides, the cells were stained with dextramers specific for pp65 NLVPMVATV (SEQ ID NO:19) epitope. To test spontaneous uptake of peptides by DCs, PBMCs from HLA-A2+/CMV positive donors were incubated at 37° C. with various concentrations of untargeted or targeted pp65 peptide for 90 min. Subsequently, the cells were washed to remove unbound peptides and cultured at 37° C. for 12 days and then stained with dextramers specific for pp65 NLVPMVATV (SEQ ID NO:19) epitope.
# Dextramers with CMV (NLVPMVATV) (SEQ ID NO:19) and HIV (ILKEPVHGV) (SEQ ID NO:22) HLA-A2 specific antigens were obtained from Immudex (Copenhagen, Denmark). Antibodies against human CD8, CD19 and CD56 were obtained from eBioscience (San Diego, Calif., USA). Briefly, around 10^6 cells were washed and resuspended in 50 μl staining buffer SB (PBS with 0.1% human serum albumin and 0.1% NaN3) containing 1 mg/ml aggregated α-globulin and then stained with dextramer for 10 min in the dark at room temperature. Subsequently, antibodies against CD8, CD19 and CD56 were added and incubation continued for additional 20 min. Cells were washed and resuspended in SB containing 1% paraformaldehyd and analyzed on a BD SLR II flow cytometer. The data were analyzed using FCS Express (De Novo Software, Los Angeles, Calif., USA).
# Monocytes have the capacity to differentiate into macrophages or inflammatory DCs in-vitro and in-vivo (Auffray et al., (2009) Annu Rev. Immunol. 27, 669-92). Given that the NW peptide bound to blood monocytes, it was investigated whether this binding affects T-cell activation. Therefore, proliferation assays were performed with whole PBMCs. […]
# iDCs [7] = test: Phage binding by flow cytometry; set-up: species or system human; conditions: binding of the phage clones to iDC, flow cytometry
# Description: as §1
# iDCs [8] = test: Binding and internalization of peptide-siRNA conjugates by microscopy; format: cell-based, human
# Description: Then the medium was replaced with fresh medium and the cells were incubated with the peptides (5 μg/ml) for 60 min at 37° C. followed by 5 min incubation with Hoechst 33342 (Invitrogen Dynal AS, Oslo, Norway). The cells were washed twice with PBS and fixed with 4% paraformaldehyde for 15 min at 4° C. After washing, slides were covered with Dako cytomation fluorescent mounting medium and then images were taken with either epifluorescence (Leica DM RHC, Leica Microscopy As, Oslo, Norway) or confocal microscopy (Zeiss LSM 510, […]).
# One of the major challenges to the clinical development of gene silencing by small interfering RNA (siRNA) is its effective delivery to target cells (Whitehead et al., Nat Rev Drug Discov 8, 129-138). Given the effective internalization of NW peptide by DCs, its potential to direct siRNAs to DCs was evaluated. First, a fluorescence labeled siRNA targeting mouse IL-10 was covalently conjugated to the NW-peptide (NW peptide with GGGSC (SEQ ID NO:43) linker) through a thiol linkage and then the binding of the conjugates to iDCs was investigated by epifluorescence microcopy. In contrast to free siRNA molecules, the peptide siRNA conjugates bound to DCs (FIG. 10A).
substance,measurement,setting,value
Deletion of N10D11: NW peptide with N10 and D11 deleted; likely NWYLPWLGTW (SEQ ID NO:38),reduction in IC50 relative to NW peptide,Monocytes; monocytes,approximately 20 fold
same,competition with NW phage binding / peptide binding to monocytes,Monocytes,reduced the binding
"GALDTTHHRPWTC [control peptide, irrelevant control peptide, reference compound]",binding of 6-IAF-conjugated peptides to iDCs,iDCs [1]; 4° C. and 37° C.,no significant binding
same,inhibition of the phage binding to iDC by synthetic peptides,iDC,"but not an irrelevant control peptide, effectively inhibited"
"GALDTTHHRPWTGCFTWPPWQAGILARNLVPMVATVQGQNLKYQEFFWDANDIYRIFAEL [GA-60-mer, 48-mer CMV pp65 peptide fused to control peptide, reference compound]","T-cell activation (proliferation, [3H]-thymidine)",[2],no significant effect
same,proportion of CD8 and CD4 T cells that produced IFN-γ,[3],very low response
same,T-cell proliferation ([3H]-thymidine),PBMCs,did not
same,dextramer-positive CD8 T cells specific for NLVPMVATV,[4],0.51%
same,pp65-specific naïve T cells (dextramer staining),[5],0.01%
same,CTL response (dextramer staining),[6]; monocyte-depleted PBMCs,0.53%
same,CTL response (dextramer staining),"[6]; whole PBMCs, n=3",0.45%
GETRAPL [DC19],Binding,iDCs [7],+++ (binding <80%: +++)
N10D11 double mutant: NW peptide with asparagine 10 and aspartic acid 11 both replaced by alanine (NWYLPWLGTAAW),mean fluorescence of bound phage,"Monocytes; at C3 concentration (8 μM), unstained cells 250",~250
same,competition with NW phage binding / peptide binding to monocytes,Monocytes,effectively competed
"NWYGAGAGTNDW [NW-mutant, NW-peptide lacking the motif LPWL]",inhibition of the phage binding to iDC by synthetic peptides,iDC,failed to reduce binding
"NWYLPWLGTNDWAGILARNLVPMVATVQGQNLC [NW-33-mer, CMV pp65 peptide fused to NW peptide]",binding of 6IAF-conjugated pp65 fusion peptides to DCs,iDCs [1]; iDCs,bound to iDCs
QLPRTAL [DC10],Binding,iDCs [7],+++ (binding <80%: +++)
QWELPWLMQPPL [DC6],Binding,iDCs [7],++++ (Binding >80-100%: ++++)
SPGLSLVSHMQT [DC13],Binding,iDCs [7],+++ (binding <80%: +++)
peptide siRNA conjugates: fluorescence labeled siRNA targeting mouse IL-10 covalently conjugated to NW peptide with GGGSC linker through a thiol linkage (NWYLPWLGTNDWGGGSC(siRNA); not fully specified; reading uncertain),intracellular delivery of peptide-siRNA conjugates,iDCs [8]; confocal microscopy,confirmed the intracellular delivery
same,binding of peptide siRNA conjugates to DCs,"iDCs [8]; epifluorescence microscopy, iDCs",bound to DCs
